In ChEMBL document CHEMBL2086270, “Rational Design, Synthesis, and SAR of a Novel Thiazolopyrimidinone Series of Selective PI3K-beta Inhibitors” (ACS Med Chem Lett, 2012):
Calls of active or inactive are those of the source. No cut-off for these calls is given here.

Key:
Blood = assay: Ratio of drug uptake in blood at 300 mg/kg to drug uptake in blood at 100 mg/kg in nude mouse bearing PC3 cells; type: functional, PC-3
[1] = Clearance in CD mouse at 0.3 mg/kg, iv; type: ADME, organism-based; design: dose 0.3 mg/kg, route intravenous; conditions: in vivo
Mus musculus [2] = assay: Inhibition of PI3K beta in human PTEN-deficient PC3 cells xenografted in nude mouse assessed as inhibition of AKT Ser473 phosphorylation at 300 mg/kg at 2 hrs; type: functional; conditions: PC-3, 2 h
Mus musculus [3] = assay: Inhibition of PI3K beta in human PTEN-deficient PC3 cells xenografted in nude mouse assessed as inhibition of AKT Ser473 phosphorylation at 100 mg/kg at 2 hrs; type: functional; conditions: PC-3, 2 h
Mus musculus [4] = assay: Inhibition of PI3K beta in human PTEN-deficient PC3 cells xenografted in nude mouse assessed as inhibition of AKT Ser473 phosphorylation at 100 mg/kg at 6 hrs; type: functional; conditions: PC-3, 6 h
[5] = Volume of distribution at steady state in CD mouse at 0.3 mg/kg, iv; type: ADME, organism-based; design: dose 0.3 mg/kg, route intravenous; conditions: in vivo, read-out: Vdss
Mus musculus [6] = assay: Inhibition of PI3K beta in human PTEN-deficient PC3 cells xenografted in nude mouse assessed as inhibition of AKT Ser473 phosphorylation at 300 mg/kg at 24 hrs; type: functional; conditions: PC-3, 24 h
Mus musculus [7] = assay: Inhibition of PI3K beta in human PTEN-deficient PC3 cells xenografted in nude mouse assessed as inhibition of AKT Ser473 phosphorylation at 100 mg/kg at 1 hr; type: functional; conditions: PC-3, 1 h
[8] = molecular target: T1, Phosphatidylinositol 4,5-bisphosphate 3-kinase catalytic subunit delta isoform (Homo sapiens, UniProt O00329); assay: Inhibition of PI3K delta by continuous TR-FRET assay
T1 sequence (O00329 whole entry): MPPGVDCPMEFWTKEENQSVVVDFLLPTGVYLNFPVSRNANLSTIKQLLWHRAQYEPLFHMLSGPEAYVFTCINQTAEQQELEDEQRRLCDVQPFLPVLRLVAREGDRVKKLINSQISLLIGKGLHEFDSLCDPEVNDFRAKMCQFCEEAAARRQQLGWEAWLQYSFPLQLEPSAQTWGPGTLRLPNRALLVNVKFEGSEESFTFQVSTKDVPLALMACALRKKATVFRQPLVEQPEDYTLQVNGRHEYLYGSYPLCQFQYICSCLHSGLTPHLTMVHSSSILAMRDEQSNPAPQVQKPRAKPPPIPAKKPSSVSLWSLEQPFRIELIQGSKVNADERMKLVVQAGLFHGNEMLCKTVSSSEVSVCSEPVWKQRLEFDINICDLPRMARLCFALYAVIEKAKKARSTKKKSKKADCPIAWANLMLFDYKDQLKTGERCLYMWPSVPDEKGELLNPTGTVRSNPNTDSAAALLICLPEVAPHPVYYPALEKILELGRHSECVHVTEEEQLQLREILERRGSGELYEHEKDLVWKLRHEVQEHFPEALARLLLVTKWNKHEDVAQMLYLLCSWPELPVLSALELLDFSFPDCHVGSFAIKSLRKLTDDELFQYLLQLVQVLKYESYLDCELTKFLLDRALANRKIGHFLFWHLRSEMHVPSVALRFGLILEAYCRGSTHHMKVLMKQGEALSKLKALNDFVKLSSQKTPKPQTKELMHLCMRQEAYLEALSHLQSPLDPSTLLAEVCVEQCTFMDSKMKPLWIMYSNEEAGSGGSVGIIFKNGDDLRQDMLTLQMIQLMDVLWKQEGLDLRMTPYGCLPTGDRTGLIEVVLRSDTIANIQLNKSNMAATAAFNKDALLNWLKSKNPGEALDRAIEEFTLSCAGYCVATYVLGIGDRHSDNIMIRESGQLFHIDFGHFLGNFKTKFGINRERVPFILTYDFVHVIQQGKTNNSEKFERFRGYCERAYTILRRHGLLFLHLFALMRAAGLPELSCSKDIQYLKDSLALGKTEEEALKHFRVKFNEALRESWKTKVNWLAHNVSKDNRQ

Mus musculus [9] = assay: Inhibition of PI3K beta in human PTEN-deficient PC3 cells xenografted in nude mouse assessed as inhibition of AKT Ser473 phosphorylation at 300 mg/kg at 8 hrs; type: functional; conditions: PC-3, 8 h
[10] = molecular target: T2, Phosphatidylinositol 4,5-bisphosphate 3-kinase catalytic subunit beta isoform (Homo sapiens, UniProt P42338); assay: Inhibition of PI3K beta in human PTEN-deficient MDA-MB-468 cells assessed as inhibition of Akt Ser473 phosphorylation; type: cell-based
T2 sequence (P42338 whole entry, canonical isoform): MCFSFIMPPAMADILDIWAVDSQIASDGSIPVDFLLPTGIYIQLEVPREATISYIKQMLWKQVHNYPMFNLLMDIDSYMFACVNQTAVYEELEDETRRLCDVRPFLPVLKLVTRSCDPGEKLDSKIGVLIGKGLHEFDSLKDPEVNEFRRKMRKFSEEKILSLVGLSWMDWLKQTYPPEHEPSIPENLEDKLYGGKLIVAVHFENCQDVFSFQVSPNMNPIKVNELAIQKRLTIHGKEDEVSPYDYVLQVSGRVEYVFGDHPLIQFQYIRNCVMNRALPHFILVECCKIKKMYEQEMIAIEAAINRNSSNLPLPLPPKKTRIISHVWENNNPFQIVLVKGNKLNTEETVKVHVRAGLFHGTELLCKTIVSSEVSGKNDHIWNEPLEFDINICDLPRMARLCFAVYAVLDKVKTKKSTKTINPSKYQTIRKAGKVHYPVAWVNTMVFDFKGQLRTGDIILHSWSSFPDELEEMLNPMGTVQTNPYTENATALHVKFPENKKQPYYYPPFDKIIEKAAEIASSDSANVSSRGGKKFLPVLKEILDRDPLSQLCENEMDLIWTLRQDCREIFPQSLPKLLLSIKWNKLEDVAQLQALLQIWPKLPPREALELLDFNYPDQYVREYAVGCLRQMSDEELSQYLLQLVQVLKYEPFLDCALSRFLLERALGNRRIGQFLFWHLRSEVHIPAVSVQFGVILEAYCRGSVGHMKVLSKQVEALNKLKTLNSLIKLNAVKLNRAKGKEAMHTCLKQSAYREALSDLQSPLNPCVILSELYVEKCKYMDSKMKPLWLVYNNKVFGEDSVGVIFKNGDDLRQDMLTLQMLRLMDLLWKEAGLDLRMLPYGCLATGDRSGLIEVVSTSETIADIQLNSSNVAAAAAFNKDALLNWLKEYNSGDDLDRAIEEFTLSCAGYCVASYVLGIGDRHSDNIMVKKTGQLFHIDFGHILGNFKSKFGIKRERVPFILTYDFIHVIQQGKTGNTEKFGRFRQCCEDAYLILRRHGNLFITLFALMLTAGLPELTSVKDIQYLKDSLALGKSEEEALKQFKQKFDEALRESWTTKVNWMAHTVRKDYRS

Mus musculus [11] = assay: Inhibition of PI3K beta in human PTEN-deficient PC3 cells xenografted in nude mouse assessed as inhibition of AKT Ser473 phosphorylation at 100 mg/kg at 10 hrs; type: functional; conditions: PC-3, 10 h
Nucleic Acid = assay: Ratio of drug uptake in tumor at 300 mg/kg to drug uptake in tumor at 100 mg/kg in nude mouse bearing PC3 cells; type: functional, organism-based; conditions: Neoplasm, PC-3
MDA-MB-468 = assay: Antiproliferative activity against PTEN-deficient human MDA-MB-468 cells; type: functional
[12] = molecular target: T2, Phosphatidylinositol 4,5-bisphosphate 3-kinase catalytic subunit beta isoform; assay: Inhibition of PI3K beta by continuous TR-FRET assay
[13] = Half life in CD mouse at 0.3 mg/kg, iv; type: ADME, organism-based; design: dose 0.3 mg/kg, route intravenous; conditions: in vivo
[14] = molecular target: Phosphatidylinositol 4,5-bisphosphate 3-kinase catalytic subunit gamma isoform (Homo sapiens, UniProt P48736); assay: Inhibition of PI3K gamma by continuous TR-FRET assay
Phosphatidylinositol 4,5-bisphosphate 3-kinase catalytic subunit gamma isoform, sequence (P48736 whole entry, canonical isoform): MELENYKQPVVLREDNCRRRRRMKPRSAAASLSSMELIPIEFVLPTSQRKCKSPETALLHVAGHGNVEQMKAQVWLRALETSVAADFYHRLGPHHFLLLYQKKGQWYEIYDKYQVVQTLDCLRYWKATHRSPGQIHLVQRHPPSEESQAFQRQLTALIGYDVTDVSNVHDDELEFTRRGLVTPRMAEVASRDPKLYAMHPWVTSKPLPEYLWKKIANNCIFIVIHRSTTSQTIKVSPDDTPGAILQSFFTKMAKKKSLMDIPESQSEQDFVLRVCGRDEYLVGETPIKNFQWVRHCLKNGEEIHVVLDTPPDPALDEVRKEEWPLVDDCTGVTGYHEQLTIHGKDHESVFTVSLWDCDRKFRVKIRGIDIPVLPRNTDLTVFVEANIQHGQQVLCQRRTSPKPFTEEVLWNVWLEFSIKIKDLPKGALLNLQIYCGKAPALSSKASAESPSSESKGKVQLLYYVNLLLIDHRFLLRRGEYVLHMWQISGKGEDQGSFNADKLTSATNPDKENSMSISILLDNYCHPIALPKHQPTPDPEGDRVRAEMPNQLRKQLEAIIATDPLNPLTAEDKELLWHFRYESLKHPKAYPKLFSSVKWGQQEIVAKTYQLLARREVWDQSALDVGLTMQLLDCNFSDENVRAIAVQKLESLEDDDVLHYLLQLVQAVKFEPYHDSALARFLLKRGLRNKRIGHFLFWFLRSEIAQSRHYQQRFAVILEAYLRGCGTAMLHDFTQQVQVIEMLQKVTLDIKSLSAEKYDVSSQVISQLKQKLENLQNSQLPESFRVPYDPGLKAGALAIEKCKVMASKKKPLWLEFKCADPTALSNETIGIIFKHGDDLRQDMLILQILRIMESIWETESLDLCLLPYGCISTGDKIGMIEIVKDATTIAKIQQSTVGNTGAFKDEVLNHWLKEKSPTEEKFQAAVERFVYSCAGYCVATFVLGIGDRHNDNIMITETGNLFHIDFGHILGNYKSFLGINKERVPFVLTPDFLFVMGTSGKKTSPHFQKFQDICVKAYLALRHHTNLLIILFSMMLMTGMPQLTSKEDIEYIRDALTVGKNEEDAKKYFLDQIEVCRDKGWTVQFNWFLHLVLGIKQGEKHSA

Mus musculus [15] = assay: Inhibition of PI3K beta in human PTEN-deficient PC3 cells xenografted in nude mouse assessed as inhibition of AKT Ser473 phosphorylation at 100 and 300 mg/kg; type: functional, organism-based; design: dose 300 mg/kg; conditions: PC-3, TDE = time-dependent effect
[16] = molecular target: Phosphatidylinositol 4,5-bisphosphate 3-kinase catalytic subunit alpha isoform (Homo sapiens, UniProt P42336); assay: Inhibition of PI3K alpha by continuous TR-FRET assay
Phosphatidylinositol 4,5-bisphosphate 3-kinase catalytic subunit alpha isoform, sequence (P42336 whole entry, canonical isoform): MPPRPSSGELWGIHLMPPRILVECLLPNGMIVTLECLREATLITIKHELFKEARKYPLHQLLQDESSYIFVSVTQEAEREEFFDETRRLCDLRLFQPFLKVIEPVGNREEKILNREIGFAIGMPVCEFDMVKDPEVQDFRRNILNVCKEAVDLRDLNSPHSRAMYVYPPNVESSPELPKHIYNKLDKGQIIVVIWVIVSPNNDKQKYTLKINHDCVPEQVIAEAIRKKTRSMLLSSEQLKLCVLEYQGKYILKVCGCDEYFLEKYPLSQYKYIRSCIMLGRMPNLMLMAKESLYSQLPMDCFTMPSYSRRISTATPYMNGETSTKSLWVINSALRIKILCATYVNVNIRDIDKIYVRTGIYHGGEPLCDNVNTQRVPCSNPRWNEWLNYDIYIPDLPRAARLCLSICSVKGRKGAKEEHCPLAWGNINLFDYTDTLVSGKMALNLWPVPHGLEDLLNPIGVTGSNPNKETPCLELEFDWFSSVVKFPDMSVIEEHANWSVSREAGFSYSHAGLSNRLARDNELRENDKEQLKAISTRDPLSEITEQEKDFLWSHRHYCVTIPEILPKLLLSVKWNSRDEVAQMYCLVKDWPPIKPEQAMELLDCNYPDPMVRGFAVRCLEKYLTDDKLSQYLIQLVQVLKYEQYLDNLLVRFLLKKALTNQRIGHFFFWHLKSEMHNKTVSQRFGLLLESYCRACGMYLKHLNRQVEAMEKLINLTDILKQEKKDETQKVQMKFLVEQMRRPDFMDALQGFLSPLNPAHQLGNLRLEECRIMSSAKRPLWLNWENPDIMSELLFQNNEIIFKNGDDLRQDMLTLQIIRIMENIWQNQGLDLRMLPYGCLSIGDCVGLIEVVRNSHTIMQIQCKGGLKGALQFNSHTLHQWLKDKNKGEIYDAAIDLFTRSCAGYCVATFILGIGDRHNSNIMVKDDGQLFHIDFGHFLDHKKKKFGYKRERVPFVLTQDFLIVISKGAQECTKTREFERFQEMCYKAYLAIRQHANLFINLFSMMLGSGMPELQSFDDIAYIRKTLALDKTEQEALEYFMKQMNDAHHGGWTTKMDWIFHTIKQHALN

Mus musculus [17] = assay: Inhibition of PI3K beta in human PTEN-deficient PC3 cells xenografted in nude mouse assessed as inhibition of AKT Ser473 phosphorylation at 300 mg/kg at 10 hrs; type: functional; conditions: PC-3, 10 h
Mus musculus [18] = assay: Inhibition of PI3K beta in human PTEN-deficient PC3 cells xenografted in nude mouse assessed as inhibition of AKT Ser473 phosphorylation at 300 mg/kg at 1 hr; type: functional; conditions: PC-3, 1 h
Mus musculus [19] = assay: Inhibition of PI3K beta in human PTEN-deficient PC3 cells xenografted in nude mouse assessed as inhibition of AKT Ser473 phosphorylation at 300 mg/kg at 4 hrs; type: functional; conditions: PC-3, 4 h
Mus musculus [20] = assay: Inhibition of PI3K beta in human PTEN-deficient PC3 cells xenografted in nude mouse assessed as inhibition of AKT Ser473 phosphorylation at 300 mg/kg at 6 hrs; type: functional; conditions: PC-3, 6 h
Mus musculus [21] = assay: Inhibition of PI3K beta in human PTEN-deficient PC3 cells xenografted in nude mouse assessed as inhibition of AKT Ser473 phosphorylation at 100 mg/kg at 24 hrs; type: functional; conditions: PC-3, 24 h
[22] = Oral bioavailability in CD mouse at 100 mg/kg; type: ADME, organism-based; conditions: in vivo
Mus musculus [23] = assay: Inhibition of PI3K beta in human PTEN-deficient PC3 cells xenografted in nude mouse assessed as inhibition of AKT Ser473 phosphorylation at 100 mg/kg at 8 hrs; type: functional; conditions: PC-3, 8 h
Mus musculus [24] = assay: Inhibition of PI3K beta in human PTEN-deficient PC3 cells xenografted in nude mouse assessed as inhibition of AKT Ser473 phosphorylation at 100 mg/kg at 4 hrs; type: functional; conditions: PC-3, 4 h
Mus musculus [25] = assay: Dose normalized AUC in CD mouse at 100 mg/kg, po; type: ADME, organism-based; design: dose 100 mg/kg, route oral; conditions: in vivo
Mus musculus [26] = assay: Toxicity in nude mouse xenografted with human PC3 cells assessed as body weight loss at 100 and 300 mg/kg administered QD for 21 days; type: organism-based, PC-3; design: dose 300 mg/kg; conditions: in vivo, 504 h
PC-3 = assay: Antitumor activity against human PC3 cells xenografted in nude mouse assessed as tumor growth inhibition at 100 and 300 mg/kg administered QD for 21 days relative to vehicle-treated control; type: functional, organism-based; design: dose 300 mg/kg

Cc1c(Cn2c(C)nc(=O)c3sc(N4CCOCC4)nc32)cccc1C(F)(F)F
Ratio (Blood): 1.2
clearance [1]: 29.6 mL/min/kg
inhibition in vivo at 300 mg/kg (Mus musculus [2]): 72%
inhibition in vivo at 100 mg/kg (Mus musculus [3]): 53%
inhibition in vivo at 100 mg/kg (Mus musculus [4]): 64%
Vd [5]: 2.8 L/kg
inhibition in vivo at 300 mg/kg (Mus musculus [6]): -1%
inhibition in vivo at 100 mg/kg (Mus musculus [7]): 63%
IC50 [8]: 20 nM
inhibition in vivo at 300 mg/kg (Mus musculus [9]): 48%
EC50 [10]: 24 nM
inhibition in vivo at 100 mg/kg (Mus musculus [11]): 33%
Ratio (Nucleic Acid): 1.2
GI50 (MDA-MB-468): 103 nM
IC50 [12]: 0.6 nM
half-life [13]: 72 min
IC50 [14]: 790 nM
inhibition (Mus musculus [15]): tde
IC50 [16]: 2500 nM
inhibition in vivo at 300 mg/kg (Mus musculus [17]): 24%
inhibition in vivo at 300 mg/kg (Mus musculus [18]): 68%
inhibition in vivo at 300 mg/kg (Mus musculus [19]): 63%
inhibition in vivo at 300 mg/kg (Mus musculus [20]): 64%
inhibition in vivo at 100 mg/kg (Mus musculus [21]): -17%
bioavailability [22]: 49%
inhibition in vivo at 100 mg/kg (Mus musculus [23]): 46%
inhibition in vivo at 100 mg/kg (Mus musculus [24]): 58%
AUC/dose (Mus musculus [25]): 278 ng/(hr.mL.mg.kg)
Activity (Mus musculus [26]): Non-toxic
TGI (PC-3): Active
